A short description of data set [1]: Slurry complexation / solubilization of CFZ-API in SBECD with citric acid (Example 1). The data set is classed as physicochemical. As to the method: In a 525 L stainless steel jacketed cooled tank controlled to 2° C.-8° C., a suspension of 2.0 kg carfilzomib-API (CFZ-API), 246 kg water for injection (WFI), and 100 kg sulfobutylether beta-cyclodextrin (SBECD) was prepared. Specifically, in the 525 L stainless steel jacketed cooled tank controlled to 2° C.-8° C., 100 kg SBECD was dissolved in 246 kg WFI. The Carfilzomib suspension was then prepared using 2.0 kg of CFZ-API. Mixing was performed using an impeller mixer to maintain suspension of the CFZ-API solids and dissolve the SBECD. In the same vessel, a probe style rotor-stator high shear mixer (homogenizer) was used as well as the low shear impeller. The high shear mixer was operated for approximately 1 hour yielding an even suspension and reduction of particle size for any larger primary particles or agglomerated API. After a suspension was achieved, 1.96 kg of citric acid was added as a 16% aqueous solution. The pH of the solution was then lowered inducing partial solubilization of the CFZ-API followed by and complexation due to the presence of SBECD. Mixing was continued for a further 24 hours with both the impeller and the high shear mixer and a dissolved concentration of CFZ-API of greater than 5.1 mg/mL was achieved. The suspension containing greater than 5.1 mg/mL of dissolved complexed CFZ-API was filtered with a 0.45 micrometer clarifying filter, then accurately diluted to a dissolved concentration of 5.0 mg/mL and pH adjusted with 1 N sodium hydroxide solution to achieve pH 3.5. The solution was sterile filtered, with two sequential 0.22 micrometer sterilizing filters, then filled into vials 12.36 mL each, containing 61.8 mg per vial of CFZ-API. The vials were partially stoppered and loaded into a lyophilizer and freeze dried over 103 hours using a freezing temperature of −45° C., primary drying temperature of −15° C., and secondary drying of +30° C. The lyophilized vials were fully stoppered, and capped, then stored at the product stability temperature of 2° C.-8° C. for up to two years before use. […]

Data set [2] can be described thus: CDP (chlorohydrin degradation product) formation in lyophilized complexed carfilzomib vs pH, water and sodium chloride content, HPLC (Example 2). The data set is classed as physicochemical. As to the method: A multivariate statistical design of experiments was conducted to assess factors controlling the level of chlorohydrin degradation product as a function of processing parameters and storage time over six months. The complexation was performed in the proportion and parameters given in Example 1, with the following modifications: (i) the complexation process was performed at 2 L batch size; (ii) the final pH of solution before vial filling was varied for purposes of the experiment from 3.0, to 4.0; (iii) sodium chloride was spiked into SBECD in some experiments to create a high sodium chloride condition; (iv) water content of the lyophilized final product in stoppered vials was produced at high and low sodium chloride conditions via early termination and stoppering of vials to create a higher residual water content condition.
The solution of complexed carfilzomib for injection bulk solution pre-lyophilization included aqueous 5 mg/mL carfilzomib, 250 mg/mL Captisol® (SBECD) and 4.86 mg/mL citric acid, pH adjusted with aqueous sodium hydroxide. Compounding of the bulk solutions for lyophilization followed the procedure detailed in Example 1 with the following manipulations to create solutions with different specific attributes: • 1. pH was adjusted to 3.0 and 4.0 • 2. Sodium chloride was spiked into the Captisol® to create a “High Chloride” condition Captisol® manufactured by Cydex, a subsidiary of Ligand, has a standard product analysis range for sodium chloride from 0.05% to 0.2% (w/v). […] 400 g of this Captisol® was required per batch for the process to be performed at 2 L scale batches of complexation processing (in same proportions and general parameters per Example 1). To create the “high chloride” condition, 0.6 g of NaCl was added to 399.4 g of Captisol® which thus mimicked what a batch containing 0.2% chloride Captisol® would be comprised of.
In order to generate two (2) moisture content conditions in the final lyophilized vials, two (2) sets of 61.8 mg/vial (of CFZ-API) samples were lyophilized. The first cycle generated the “dry” sample set of vials containing approximately 0.6% residual water per Example 1 lyophilization parameters. For the second sample set, lyophilization was terminated and vials stoppered earlier in the secondary drying phase to generate the “wet” condition vials, with residual moisture approximately 2.4% water per vial initially.
The bulk solution of complexed carfilzomib was analyzed during manufacture by High Performance Liquid Chromatography (HPLC) to accurately quantify the concentration of dissolved and complexed carfilzomib drug substance. Subsequently, additional water was added to accurately dilute the bulk complexed solution. After this dilution step, HPLC was used again to ensure a target concentration of 5.0 mg/mL was achieved. Samples of the three (3) final bulk solutions were analyzed for potency and purity confirmation testing by HPLC. […] Karl Fischer Coulometry method was used for the water content determination in the lyophilized drug product.

The nature of data set [3]: Solubility of carfilzomib as a function of SBECD concentration, pH 1.5 and 3.5, 5° C. and 25° C. (Example 4). The class given is physicochemical. The settings on record: SBECD solutions, citric acid 30 mM, pH 1.5 and 3.5, 5° C. vs 25° C., 24 hours. As to the method:
The experiments at acidic conditions below the target pH values and titrated to pH 1.5 or 3.5 using aqueous sodium hydroside solution. Measurements of solubilized concentration were those from samples analyzed after 24 hours of time to equilibrate.

Molecules are shown by their SMILES. In brackets after ≈: the same amount, converted by molar mass.

For orientation: solubility means how much of the substance goes into solution per volume. On to `CC(C)C[C@H](NC(=O)[C@H](CCc1ccccc1)NC(=O)CN1CCOCC1)C(=O)N[C@@H](Cc1ccccc1)C(=O)N[C@@H](CC(C)C)C(=O)[C@@]1(C)CO1` [carfilzomib], for which, in data set [1] (24 hour complexation, mean API particle size 21.1 vs 7.5 micrometers), the “extent of solubilization vs API particle size (FIG. 2)” value is given as “equivalent extent of solubilization”. Also, the “dissolved concentration of CFZ-API” value in data set [1] (SBECD/WFI/citric acid slurry, 2° C.-8° C., 24 hours mixing) is “greater than 5.1 mg/mL”. Further, the “effect of higher SBECD concentration on solubility (FIG. 3)” value in data set [1] (process of Example 1) is “increased the solubility”. In addition, the “% Area of CDP after 6 months (HPLC data)” value in data set [2] (pH 3.00, water 0.7%, sodium chloride 0.05%, 5° C.) was 0.00 % Area; in data set [2] (pH 3.00, water 0.7%, sodium chloride 0.05%, 25° C.) it was 0.14 % Area; in data set [2] (pH 3.00, water 0.7%, sodium chloride 0.2%, 5° C.), 0.13 % Area; in data set [2] (pH 3.00, water 0.7%, sodium chloride 0.2%, 25° C.), 0.70 % Area; in data set [2] (pH 3.00, water 2%, sodium chloride 0.05%, 5° C.), 0.02 % Area; in data set [2] (pH 3.00, water 2%, sodium chloride 0.05%, 25° C.), 0.55 % Area. For the same compound, the “% Area of CDP after 6 months (HPLC data)” value in data set [2] (pH 3.00, water 2%, sodium chloride 0.2%, 5° C.) amounted to 0.28 % Area; in data set [2] (pH 3.00, water 2%, sodium chloride 0.2%, 25° C.), 2.57 % Area; in data set [2] (pH 4.00, water 0.7%, sodium chloride 0.05%, 5° C.), 0.00 % Area; in data set [2] (pH 4.00, water 0.7%, sodium chloride 0.05%, 25° C.), 0.09 % Area; in data set [2] (pH 4.00, water 0.7%, sodium chloride 0.2%, 5° C.) it was 0.08 % Area; in data set [2] (pH 4.00, water 0.7%, sodium chloride 0.2%, 25° C.) it was 0.36 % Area. The “% Area of CDP after 6 months (HPLC data)” value in data set [2] (pH 4.00, water 2%, sodium chloride 0.05%, 5° C.) is reported as 0.02 % Area; in data set [2] (pH 4.00, water 2%, sodium chloride 0.05%, 25° C.) it was 0.35 % Area; in data set [2] (pH 4.00, water 2%, sodium chloride 0.2%, 5° C.), 0.18 % Area; in data set [2] (pH 4.00, water 2%, sodium chloride 0.2%, 25° C.), 1.71 % Area. In addition, the “difference in solubility between low and high temperature (FIG. 6)” value in data set [3] is given as “No significant differences in solubility”. Also, the solubility in the data set “physchem” (pH 1, simulated gastric fluid) was 1.8 mg/mL (≈ 2500 µM); in “physchem” (pH 3, aqueous buffer), 0.02 mg/mL (≈ 27.8 µM); in the data set “physchem” (pH 5, aqueous buffer) it was 0.002 mg/mL (≈ 2.78 µM); in the data set “physchem” (water) it was 0.002 mg/mL (≈ 2.78 µM).
